# Laboratory results taken from patent US9802941B2, “Compounds and methods for inhibiting histone demethylases” (Gilead Sciences, Inc., priority 2014, dated 2017).
# Where two headings read alike, the source gives them in different places.
# Tests used:
# Format in all cases: biochemical
# [1] = biological target: T1, KDM6A (UTX) (Homo sapiens, UniProt O15550); assay: Histone lysine demethylase AlphaLISA assay, KDM6A
# T1 construct: KDM6A (UTX); BRIC; 919-1401; E. coli; host or cells: E. coli
# Experimental: The compounds of the application, or a pharmaceutically acceptable salt, or solvate, or prodrug thereof, are tested in an in vitro AlphaLISA assay. Enzymes are dissolved in enzyme buffer and incubated before they are added to DMSO solutions of compounds of the application, or a pharmaceutically acceptable salt, or solvate, or prodrug thereof, in enzyme buffer. The reaction mixture is then incubated for an additional period of time before substrate solution is added and then the resulting mixture again incubated. Acceptor beads and suspended Epigenetic Buffer from stock are added and the suspension is again incubated before a suspension of streptavidin donor beads in Epigenetic Buffer is added. After an additional period of incubation, the plates are read.
# The ability of compounds of the application to inhibit the histone lysine demethylase activity in vitro of different enzymes was determined.
# The reaction mixture was incubated for another 10 minutes before 5 μL of substrate solution was added and the resulting mixture was then incubated at room temperature. […] After incubation at room temperature in the dark, the plates were read.
# Enzyme Buffer: 50 mM Hepes (pH 7.4-8.0), 0.003-0.01% Tween-20, 0.1% BSA; 5 μM (NH4)2Fe(SO4)2.
# [2] = biological target: T2, KDM4C (JMJD2C) (Homo sapiens, UniProt Q9H3R0); assay: Histone lysine demethylase AlphaLISA assay, KDM4C
# T2 construct: KDM4C; BRIC, Denmark; 1-349; E. coli; host or cells: E. coli
# T2 sequence (Q9H3R0 1-349): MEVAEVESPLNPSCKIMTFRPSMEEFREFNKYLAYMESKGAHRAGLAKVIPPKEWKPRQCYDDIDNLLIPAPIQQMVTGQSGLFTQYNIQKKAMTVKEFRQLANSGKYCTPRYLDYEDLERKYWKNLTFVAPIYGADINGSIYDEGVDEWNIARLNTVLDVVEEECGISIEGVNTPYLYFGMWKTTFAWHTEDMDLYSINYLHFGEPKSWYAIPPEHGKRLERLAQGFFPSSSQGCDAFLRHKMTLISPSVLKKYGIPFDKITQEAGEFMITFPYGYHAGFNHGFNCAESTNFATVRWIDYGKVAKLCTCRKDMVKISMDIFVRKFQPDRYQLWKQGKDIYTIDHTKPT
# Outline: (§1)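 Compounds preincubated 10 min with each demethylase in Hepes buffer (pH 7.4-8.0) containing Tween-20, 0.1% BSA and 5 μM Fe(II); substrate then added, room-temperature reaction. Read-out by AlphaLISA acceptor and streptavidin donor beads after incubation in the dark.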
# [3] = biological target: T3, KDM2B (FBXL10) (Homo sapiens, UniProt Q8NHM5); assay: Histone lysine demethylase AlphaLISA assay, KDM2B
# T3 construct: KDM2B; BPS,; 1-650; Bac; purchased BPS Bioscience, US; host or cells: baculovirus system
# T3 sequence (Q8NHM5 1-650): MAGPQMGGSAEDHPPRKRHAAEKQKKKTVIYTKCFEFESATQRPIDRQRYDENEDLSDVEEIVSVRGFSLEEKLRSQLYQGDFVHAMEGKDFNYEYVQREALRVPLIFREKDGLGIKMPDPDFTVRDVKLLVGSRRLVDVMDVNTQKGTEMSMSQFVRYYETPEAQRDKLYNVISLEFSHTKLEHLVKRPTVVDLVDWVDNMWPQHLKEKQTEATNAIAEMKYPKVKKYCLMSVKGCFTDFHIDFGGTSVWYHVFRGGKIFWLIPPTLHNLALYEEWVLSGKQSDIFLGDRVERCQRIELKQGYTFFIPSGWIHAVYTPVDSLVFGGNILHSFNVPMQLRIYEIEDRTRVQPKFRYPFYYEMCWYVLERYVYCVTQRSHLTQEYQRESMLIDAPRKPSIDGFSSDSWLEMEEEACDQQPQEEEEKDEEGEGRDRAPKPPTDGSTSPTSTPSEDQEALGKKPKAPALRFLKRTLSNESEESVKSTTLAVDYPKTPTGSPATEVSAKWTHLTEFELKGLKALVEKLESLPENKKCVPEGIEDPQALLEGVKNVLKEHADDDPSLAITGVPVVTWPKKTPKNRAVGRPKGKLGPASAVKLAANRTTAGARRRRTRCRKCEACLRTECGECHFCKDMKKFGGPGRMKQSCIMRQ
# Outline: as §1
# [4] = biological target: T4, KDM5B (PLU-1) (Homo sapiens, UniProt Q9UGL1); assay: Histone lysine demethylase AlphaLISA assay, KDM5B
# T4 construct: BRIC; 1-809; E. coli; host or cells: E. coli
# T4 sequence (Q9UGL1 1-809): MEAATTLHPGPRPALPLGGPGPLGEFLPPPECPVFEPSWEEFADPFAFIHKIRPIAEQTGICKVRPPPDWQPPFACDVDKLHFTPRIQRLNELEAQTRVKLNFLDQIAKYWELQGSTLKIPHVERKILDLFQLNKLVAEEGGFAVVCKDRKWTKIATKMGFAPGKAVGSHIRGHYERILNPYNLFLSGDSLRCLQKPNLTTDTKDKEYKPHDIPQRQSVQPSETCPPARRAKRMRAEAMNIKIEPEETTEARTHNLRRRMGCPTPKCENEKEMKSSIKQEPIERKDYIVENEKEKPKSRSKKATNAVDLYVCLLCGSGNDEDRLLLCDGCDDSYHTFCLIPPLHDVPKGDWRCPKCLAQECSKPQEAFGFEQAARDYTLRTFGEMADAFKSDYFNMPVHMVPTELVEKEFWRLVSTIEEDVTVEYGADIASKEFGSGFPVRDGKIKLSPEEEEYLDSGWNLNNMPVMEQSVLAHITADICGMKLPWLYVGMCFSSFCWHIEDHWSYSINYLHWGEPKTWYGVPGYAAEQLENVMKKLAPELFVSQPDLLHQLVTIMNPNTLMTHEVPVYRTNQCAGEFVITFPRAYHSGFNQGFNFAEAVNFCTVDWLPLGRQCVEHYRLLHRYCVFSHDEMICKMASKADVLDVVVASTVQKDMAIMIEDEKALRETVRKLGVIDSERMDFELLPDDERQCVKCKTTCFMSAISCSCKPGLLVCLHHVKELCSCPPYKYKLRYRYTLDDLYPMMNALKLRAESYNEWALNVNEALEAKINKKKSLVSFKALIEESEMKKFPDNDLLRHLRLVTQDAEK
# Outline: as §1
# [5] = biological target: T5, PHF8 (KDM7) (Homo sapiens, UniProt Q9UPP1); assay: Histone lysine demethylase AlphaLISA assay, PHF8
# T5 construct: KDM7 (PHF8); BRIC; 1-1322; Bac
# T5 sequence (Q9UPP1 37-440 limits assumed): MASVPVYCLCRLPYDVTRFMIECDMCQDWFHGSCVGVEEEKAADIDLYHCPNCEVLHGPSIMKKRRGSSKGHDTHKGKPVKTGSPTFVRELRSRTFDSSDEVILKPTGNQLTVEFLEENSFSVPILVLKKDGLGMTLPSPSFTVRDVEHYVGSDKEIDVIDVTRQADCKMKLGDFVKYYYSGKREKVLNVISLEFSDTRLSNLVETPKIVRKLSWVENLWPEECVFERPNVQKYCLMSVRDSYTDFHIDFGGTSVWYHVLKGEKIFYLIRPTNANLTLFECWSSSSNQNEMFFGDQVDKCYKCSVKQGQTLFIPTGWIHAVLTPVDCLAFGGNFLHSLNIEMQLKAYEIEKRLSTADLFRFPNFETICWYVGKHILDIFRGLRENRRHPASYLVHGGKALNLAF
# Outline: as §1
# [6] = AlphaLISA assay, read-out: HDME Inhibition KDM6A (IC50)
# [7] = AlphaLISA, in vitro, read-out: HDME Inhibition KDM6A
# [8] = AlphaLISA assay, read-out: HDME Inhibition KDM4C (IC50)
# [9] = AlphaLISA, in vitro, read-out: HDME Inhibition KDM4C
# [10] = AlphaLISA, in vitro, read-out: HDME Inhibition KDM2B
# [11] = AlphaLISA assay, read-out: HDME Inhibition KDM5B (IC50)
# [12] = AlphaLISA, in vitro, read-out: HDME Inhibition KDM5B
# [13] = AlphaLISA assay, read-out: HDME Inhibition PHF8 (IC50)
# [14] = AlphaLISA, in vitro, read-out: HDME Inhibition PHF8
# T1 sequence (O15550 919-1401): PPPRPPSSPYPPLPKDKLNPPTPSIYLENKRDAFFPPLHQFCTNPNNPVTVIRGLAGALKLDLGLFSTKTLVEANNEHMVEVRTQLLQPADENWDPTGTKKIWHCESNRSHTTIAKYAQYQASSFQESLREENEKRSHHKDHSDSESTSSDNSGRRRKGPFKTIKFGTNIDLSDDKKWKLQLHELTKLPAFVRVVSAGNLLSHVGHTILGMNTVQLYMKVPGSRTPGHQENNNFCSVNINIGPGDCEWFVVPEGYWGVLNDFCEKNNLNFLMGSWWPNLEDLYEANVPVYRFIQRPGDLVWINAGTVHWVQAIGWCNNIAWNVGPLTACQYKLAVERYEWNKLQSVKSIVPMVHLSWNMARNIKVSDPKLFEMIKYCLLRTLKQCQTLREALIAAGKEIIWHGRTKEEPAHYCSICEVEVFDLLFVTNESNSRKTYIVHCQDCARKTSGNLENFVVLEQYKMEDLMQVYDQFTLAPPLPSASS
SMILES,"IC50 [1, 6]","IC50 [1, 7]","IC50 [2, 8]","IC50 [2, 9]","IC50 [3, 10]","IC50 [4, 11]","IC50 [4, 12]","IC50 [5, 13]","IC50 [5, 14]","IC50 ([3]; AlphaLISA assay, read-out: HDME Inhibition KDM2B (IC50))",IC50 [4]
"COCc1cc(C(=O)O)cc(CNCc2nccn2Cc2ccc(F)cc2)n1 [Compound 2, 2-{[({1-[(4-fluorophenyl)methyl]-1H-imidazol-2-yl}methyl)amino]methyl}-6-(methoxymethyl)pyridine-4-carboxylic acid]",> 10 µM,> 10 µM,> 10 µM,> 10 µM,2.94 µM,> 10 µM,> 10 µM,> 10 µM,> 10 µM,–,–
"CCc1cc(C(=O)O)cc(CNCc2nccn2Cc2ccc(F)cc2)n1 [Compound 13, 2-ethyl-6-{[({1-[(4-fluorophenyl)methyl]-1H-imidazol-2-yl}methyl)amino]methyl}pyridine-4-carboxylic acid]",> 10 µM,> 10 µM,> 10 µM,> 10 µM,2.27 µM,> 10 µM,> 10 µM,–,5.78 µM,–,–
"Cc1cc(C(=O)O)cc(CNCc2nnc(Cc3cccs3)n2Cc2ccc(F)cc2)n1 [Compound 40, 2-{[({4-[(4-fluorophenyl)methyl]-5-(thiophen-2-ylmethyl)-4H-1,2,4-triazol-3-yl}methyl)amino]methyl}-6-methylpyridine-4-carboxylic acid]",> 10 µM,> 10 µM,> 10 µM,> 10 µM,0.599 µM,> 10 µM,> 10 µM,–,1.53 µM,–,–
"Cc1cc(C(=O)O)cc(CNCc2nccn2Cc2ccc(F)cc2)n1 [Compound 1, 2-{[({1-[(4-fluorophenyl)methyl]-1H-imidazol-2-yl}methyl)amino]methyl}-6-methylpyridine-4-carboxylic acid]",> 10 µM,> 10 µM,> 10 µM,> 10 µM,0.431 µM,> 10 µM,> 10 µM,–,0.352 µM,–,–
"Cc1cc(C(=O)O)cc(CNCc2nnc(Cc3ccccc3)n2Cc2ccc(F)cc2)n1 [Compound 29, 2-{[({5-benzyl-4-[(4-fluorophenyl)methyl]-4H-1,2,4-triazol-3-yl}methyl)amino]methyl}-6-methylpyridine-4-carboxylic acid]",> 10 µM,> 10 µM,> 10 µM,> 10 µM,1.14 µM,> 10 µM,> 10 µM,–,2.65 µM,–,–
"CCCC(C)c1cnc(CNCc2cc(C(=O)O)cc(C)n2)n1Cc1ccc(F)cc1 (centres unmarked) [Compound 10, 2-{[({1-[(4-fluorophenyl)methyl]-5-(pentan-2-yl)-1H-imidazole-2-yl}methyl)amino]methyl}-6-methylpyridine-4-carboxylic acid]",> 10 µM,> 10 µM,–,1.37 µM,> 10 µM,–,–,> 10 µM,> 10 µM,> 10 µM,1.28 µM
"C/C=C/c1cc(C(=O)O)cc(CNCc2nccn2Cc2ccc(F)cc2)n1 [Compound 5, 2-{[({1-[(4-fluorophenyl)methyl]-1H-imidazol-2-yl}methyl)amino]methyl}-6-[(1E)-prop-1-en-1-yl]pyridine-4-carboxylic acid]",> 10 µM,> 10 µM,> 10 µM,> 10 µM,1.6 µM,> 10 µM,> 10 µM,–,3.76 µM,–,–
"Cc1cc(C(=O)O)cc(CNCCc2ccccn2)n1 [Compound 3, 2-methyl-6-({[2-(pyridin-2-yl)ethyl]amino}methyl)pyridine-4-carboxylic acid]",> 10 µM,> 10 µM,> 10 µM,> 10 µM,4.65 µM,> 10 µM,> 10 µM,> 10 µM,> 10 µM,–,–
"Cc1cc(C(=O)O)cc(CNCc2nnc(C3CC3)n2Cc2ccc(F)cc2)n1 [Compound 38, 2-{[({5-cyclopropyl-4-[(4-fluorophenyl)methyl]-4H-1,2,4-triazol-3-yl}methyl)amino]methyl}-6-methylpyridine-4-carboxylic acid]",> 10 µM,> 10 µM,> 10 µM,> 10 µM,2.29 µM,–,–,> 10 µM,> 10 µM,–,4.62 µM
"CC#Cc1cc(C(=O)O)cc(CNCc2nccn2Cc2ccc(F)cc2)n1 [Compound 6, 2-{[({1-[(4-fluorophenyl)methyl]-1H-imidazol-2-yl}methyl)amino]methyl}-6-(prop-1-yn-1-yl)pyridine-4-carboxylic acid]",> 10 µM,> 10 µM,> 10 µM,> 10 µM,0.708 µM,–,–,–,0.353 µM,–,3.35 µM
"CC(=O)c1ccc(Cn2ccnc2CNCc2cc(C(=O)O)cc(C)n2)cc1 [Compound 24, 2-{[({1-[(4-acetylphenyl)methyl]-1H-imidazol-2-yl}methyl)amino]methyl}-6-methylpyridine-4-carboxylic acid]",–,8.35 µM,> 10 µM,> 10 µM,2.23 µM,–,–,–,–,–,0.262 µM
